Test results: patent publication US10226452B2, “Benzoxazolone derivatives as acid ceramidase inhibitors, and their use as medicaments” (FONDAZIONE ISTITUTO ITALIANO DI TECNOLOGIA, priority 2014, dated 2019)

What was measured:
MeWo cells = assay: ceramide levels in MeWo human melanoma cells; assay type: cell-based; details: 25 μM
Procedure: Specifically, FIG. 1 evidences the effects of compound of Example 7 or vehicle (0.1% DMSO in DMEM) on AC activity and ceramide levels in A375 (left panel) or MeWo (right panel) human melanoma cell lines. (A-B) Intact cells were treated with compound of Example 7 (25 μM) or vehicle and AC activity was measured 30 minutes or 3 hours later in cell lysates. (B) Intact cells were exposed to compound of Example 7 (25 μM) for 2 hours or 24 hours and medium chain ceramides (C-D), long chain ceramides (E-F) and dihydroceramides (G-H) were quantified. Results are expressed as mean±s.e.m. (n=3). *p<0.05, **p<0.01, ***p<0.001 vs vehicle, two-way ANOVA followed by Dunnet.
Lipids were extracted from mouse tissue lysate with a chloroform/MeOH mixture (2:1 v/v, 3 mL) containing internal standards. The organic phase was collected, dried under nitrogen, and dissolved in chloroform/MeOH (1:3 v/v) for LC-MS analyses. Ceramides, sphingosine and sphinganine were analyzed by LC-MS/MS, using a Waters Acquity UPLC coupled with a Waters Xevo TQMS and interfaced with ESI. Separation was done on a Waters Acquity BEH C18 1.7 μm column (2.1×50 mm) at 60° C. A step gradient of 0.1% formic acid in acetonitrile/water (20:80 v/v) as solvent A and 0.1 formic acid in acetonitrile/isopropyl alcohol (20:80 v/v) as solvent B was applied at a flow rate of 0.4 mL/min. Detection was in the positive ionization mode. Capillary voltage was 3.5 kV and cone voltage was 25 V. The source temperature and desolvation temperatures were set at 120° C. and 600° C. respectively. […]
Tissue-derived ceramides were identified by comparison of their LC retention times and MS^2 fragmentation patterns with those of authentic standards (Avanti Polar Lipids). Extracted ion chromatograms were used to quantify myristoyl ceramide (C14:0, m/z 510.5>492.5>264.3), palmitoyl ceramide (C16:0, m/z 538.5>520.3>264.3), stearoyl ceramide (C18:0 m/z 566.5>548.3>264.3), lignoceroyl ceramide (C24:0 m/z 650.5>632.3>264.3), nervonoyl ceramide (C24:1 m/z 648.5>630.3>264.3) and using lauroyl ceramide standard (m/z 482.5>464.5>264.3). […]

PLC = assay: Cerep enzyme inhibition screen: PLC; assay type: biochemical; details: mean of two determinations
Text: Compound of Example 25 falling in both Formula (I) and (Ia) was selected to be tested for off-target effects on a set of enzymes that include proteases (aspartic, cysteine, and serine), cyclooxygenases as well as lipoxygenases and group IV phospholipase (sPLA2) (Table 3).

Raw264.7 cells = assay: sphingosine and ceramide levels in RAW264.7 cells; assay type: cell-based, mouse; details: 0.1-20 μM, 3 hours
Procedure: Specifically it is reported the concentration response of compound of Example 25 or vehicle (0.1% DMSO in DMEM) on AC activity and ceramide levels in RAW264.7 murine cell line. (A) Intact cells were treated with compound of Example 25 (0.1-20 μM) or vehicle and AC activity was measured 3 hours later in cell lysates. (B-E) Intact cells were exposed to compound of Example 25 (0.1-20 μM) for 3 hours and sphingosine/sphinganine (B), dihydroceramides (C), medium chain ceramides (D), long chain ceramides (E) were quantified. Results are expressed as mean±s.e.m. (n=3). *p<0.05, **p<0.01, ***p<0.001 vs vehicle, two-way ANOVA followed by Dunnet.
Lipids were extracted from mouse tissue lysate with a chloroform/MeOH mixture (2:1 v/v, 3 mL) containing internal standards. The organic phase was collected, dried under nitrogen, and dissolved in chloroform/MeOH (1:3 v/v) for LC-MS analyses. Ceramides, sphingosine and sphinganine were analyzed by LC-MS/MS, using a Waters Acquity UPLC coupled with a Waters Xevo TQMS and interfaced with ESI. […]
Tissue-derived sphingosine and sphinganine were identified by comparison of their LC retention times and MS^2 fragmentation patterns with those of authentic standards (Avanti Polar Lipids). Extracted ion chromatograms were used to quantify sphingosine ([…], m/z 300.5>282.5) and sphinganine standard (C18:0, m/z 303>285). […]

MAG levels = MAG levels in mouse tissues; assay type: in vivo; details: mice; 10 mg-kg-1 intraperitoneal; after 3 hours
Procedure: Specifically, the levels of MAGs were quantified after 3 hours after intraperitoneal injection of compound of Example 25 (10 mg-kg-1). Specifically, levels of 16:0 MAG, 18:0 MAG, 18:1 MAG, 22:4 MAG, 22:6 MAG were measured in the brain (a); levels of 16:0 MAG, 18:0 MAG, 18:1 MAG, 22:4 MAG were measured in the liver (b), in fat (c) and in the heart (d). Results are expressed as mean±s.e.m. (n=5).
We homogenized tissue samples (20-30 mg) in methanol (1 mL) containing deuterium-labeled 2-AG (500 pmol) as internal standard (Cayman, Ann Arbor, Mich.). We extracted lipids with chloroform (2 mL) and water (1 mL). The organic phases were dried in a stream of N2, reconstituted in chloroform (2 mL) and fractionated by open-bed silica gel column chromatography as described. The eluded fraction containing 2-AG and anandamide were dried under N2, and residues were suspended in chloroform/methanol (1:3, vol:vol; 100 μL). Analyses were conducted using a liquid chromatography mass spectrometry (LC-MS) apparatus consisting of an Agilent 1100 system and 1946D mass spectrometer detector equipped with ESI interface (Agilent Technologies, Santa Clara, Calif., USA).

MMP-2 (h) = MMP-2 (h) (Homo sapiens (Human), UniProt P08253); assay: Cerep enzyme inhibition screen: MMP-2; assay type: biochemical; details: mean of two determinations, read-out: Inhibitory activity (% Inh. at 10 μM), mean
Text: Compound of Example 25 falling in both Formula (I) and (Ia) was selected to be tested for off-target effects on a set of enzymes that include proteases (aspartic, cysteine, and serine), cyclooxygenases as well as lipoxygenases and group IV phospholipase (sPLA2) (Table 3). [table]

Sequence of MMP-2 (h) (P08253 110-660): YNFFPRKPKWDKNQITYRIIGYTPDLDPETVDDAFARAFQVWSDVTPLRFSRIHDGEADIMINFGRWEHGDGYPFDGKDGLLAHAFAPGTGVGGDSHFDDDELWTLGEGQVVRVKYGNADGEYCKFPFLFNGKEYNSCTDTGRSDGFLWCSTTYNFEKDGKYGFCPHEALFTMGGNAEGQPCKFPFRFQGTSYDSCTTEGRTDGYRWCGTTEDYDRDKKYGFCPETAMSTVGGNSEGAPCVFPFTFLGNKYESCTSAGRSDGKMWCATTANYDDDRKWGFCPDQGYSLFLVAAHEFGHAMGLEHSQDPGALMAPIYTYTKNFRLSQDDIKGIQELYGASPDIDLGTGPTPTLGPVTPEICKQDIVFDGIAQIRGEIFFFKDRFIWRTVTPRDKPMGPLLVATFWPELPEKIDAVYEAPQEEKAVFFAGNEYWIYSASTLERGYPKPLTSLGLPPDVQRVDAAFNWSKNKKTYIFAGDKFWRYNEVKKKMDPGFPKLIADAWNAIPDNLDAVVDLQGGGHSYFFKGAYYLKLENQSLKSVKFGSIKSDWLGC
Text for SW403 cells: Combinatory index calculation of cell viability data analyzed with CompuSyn Software. The resulting combination index (CI) offers quantitative definition for additive effect (CI=1), synergism (CI<1), and antagonism (CI>1) in drug combinations. Results are expressed as mean±s.e.m. (n=8-16) of three independent experiments.
Finally, the CellTiter-Glo® Luminescent Cell Viability Assay can be used to determine the number of viable cells in culture based on quantitation of the ATP present, which signals the presence of metabolically active cells. Briefly, a volume of CellTiter-Glo® Reagent equal to the volume of cell culture medium present in each well is added to 96-well plates after drug treatment. Contents are mixed for 2 minutes on an orbital shaker to induce cell lysis and plate was incubated at room temperature for 10 minutes to stabilize signal before reading luminescence.
The compounds were added to the cultures once every 24 hours over a period of 72 hours and the effects of the combined treatments were evaluated using CompuSyn Software.

Row | SMILES | duration of effects on ceramide levels (MeWo cells; MeWo cells (high AC expression)) | di-hydro ceramide species levels (MeWo cells; MeWo cells) | ceramide species levels (cer(d18:1/14:0), cer(d18:1/16:0), cer(d18:1/18:0), cer(d18:1/24:1)) (MeWo cells; MeWo cells, LC/MS) | Inhibitory activity (% Inh. at 10 μM), mean (PLC) [%] | di-hydro ceramides and ceramide species levels (Raw264.7 cells) | sphingosine levels (Raw264.7 cells) | interaction with 5-FU on SW403 cell viability (combinatory index analysis) (SW403 cells) | levels of the most representative MAGs in brain, liver, fat and heart (MAG levels) | inhibition at 10 µM (MMP-2 (h)) [%]
1 | O=C(NCCCCc1ccccc1)n1c(=O)oc2cc(Br)ccc21 [Example 7, 6-Bromo-2-oxo-N-(4-phenylbutyl)-1,3-benzoxazole-3-carboxamide] | recovered the initial phenotype after 24 hours | significant increase in all di-hydro ceramide species analyzed | intracellular accumulation of various ceramide species |  |  |  |  |  | 
2 | O=C(NCCCCc1ccccc1)n1c(=O)oc2cc(-c3ccc(F)cc3)ccc21 [Example 25, 6-(4-Fluorophenyl)-2-oxo-N-(4-phenylbutyl)-1,3-benzoxazole-3-carboxamide] |  |  |  | −19.7 | intracellular accumulation of various di-hydro ceramides and ceramide species | parallel decrease in sphingosine levels | acted synergistically with 5-FU | remained unchanged | 7.2
